Read-outs that look alike come from different tables or passages of the source.
How the values were obtained:
Assay type in all cases: biochemical
NDM-1 = NDM-1 (Klebsiella pneumoniae, UniProt C7C422); test: Inhibitory activity on MBL, fluorescent substrate FC-5
NDM-5 = NDM-5 (Klebsiella pneumoniae, UniProt C7C422, M154L/V88L); test: as above
IMP-1 = IMP-1 (Serratia marcescens, UniProt P52699); test: as above; details: read-out: Inhibitory activity on MBL IMP-1 (IC50 class)
VIM-1 = VIM-1 (Pseudomonas aeruginosa, UniProt A0A0F7KYQ8); test: as above
VIM-2 = VIM-2 (Escherichia coli, UniProt Q5U7L7); test: as above; details: read-out: Inhibitory activity on MBL VIM-2 (IC50 class)
KPC-2 = KPC-2 (Klebsiella pneumoniae, UniProt Q9F663); test: Inhibitory activity on SBL, fluorescent substrate FC-5
TEM-1 = TEM-1 (Escherichia coli, UniProt P62593); test: as above; details: for IC50: read-out: Inhibitory activity on SBL TEM-1 (IC50 class)
CTX-M-14 = CTX-M-14 (Escherichia coli, UniProt Q9L5C7); test: as above; details: for IC50: read-out: Inhibitory activity on SBL CTX-M-14 (IC50 class)
OXA-48 = OXA-48 (Klebsiella pneumoniae, UniProt Q6XEC0); test: as above
[1] = read-out: Inhibitory activity on MBL NDM-1 (IC50 class)
[2] = read-out: inhibitory activity at a nanomolar-level on NDM-1
[3] = read-out: Inhibitory activity on MBL NDM-5 (IC50 class)
[4] = read-out: inhibitory activity at a nanomolar-level on NDM-5
[5] = read-out: Inhibitory activity on MBL VIM-1 (IC50 class)
[6] = read-out: Inhibitory activity on SBL KPC-2 (IC50 class)
[7] = read-out: Inhibitory activity on SBL OXA-48 (IC50 class)
[8] = salts, read-out: inhibitory activity at a nanomolar-level on KPC-2
[9] = salts, read-out: inhibitory activity at a nanomolar-level on OXA-48

Chain of NDM-1 (C7C422 29-270 limits assumed): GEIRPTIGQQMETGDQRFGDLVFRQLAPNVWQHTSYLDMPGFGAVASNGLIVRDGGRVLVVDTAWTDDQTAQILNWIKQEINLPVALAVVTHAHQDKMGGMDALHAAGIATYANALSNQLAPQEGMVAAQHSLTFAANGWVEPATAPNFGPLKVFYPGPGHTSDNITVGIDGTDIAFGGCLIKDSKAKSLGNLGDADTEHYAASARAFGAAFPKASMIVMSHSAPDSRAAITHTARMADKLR
Chain of NDM-5 (C7C422 29-270 V88L/M154L): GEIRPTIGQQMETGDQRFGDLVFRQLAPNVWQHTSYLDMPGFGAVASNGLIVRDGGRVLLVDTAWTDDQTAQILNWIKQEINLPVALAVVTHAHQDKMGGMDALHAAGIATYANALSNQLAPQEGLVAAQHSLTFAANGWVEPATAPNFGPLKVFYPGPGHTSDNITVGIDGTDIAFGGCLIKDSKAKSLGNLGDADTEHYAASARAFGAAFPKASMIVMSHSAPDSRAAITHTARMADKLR
Chain of KPC-2 (Q9F663 25-293 limits assumed): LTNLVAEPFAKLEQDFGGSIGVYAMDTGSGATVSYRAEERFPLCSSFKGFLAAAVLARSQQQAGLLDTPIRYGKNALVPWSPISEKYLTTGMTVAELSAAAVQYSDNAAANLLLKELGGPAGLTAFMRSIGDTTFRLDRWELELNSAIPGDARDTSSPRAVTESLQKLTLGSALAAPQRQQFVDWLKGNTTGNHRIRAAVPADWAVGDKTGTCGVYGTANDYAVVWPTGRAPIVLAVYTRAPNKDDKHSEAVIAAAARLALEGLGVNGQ
Chain of CTX-M-14 (Q9L5C7 entry or part of it): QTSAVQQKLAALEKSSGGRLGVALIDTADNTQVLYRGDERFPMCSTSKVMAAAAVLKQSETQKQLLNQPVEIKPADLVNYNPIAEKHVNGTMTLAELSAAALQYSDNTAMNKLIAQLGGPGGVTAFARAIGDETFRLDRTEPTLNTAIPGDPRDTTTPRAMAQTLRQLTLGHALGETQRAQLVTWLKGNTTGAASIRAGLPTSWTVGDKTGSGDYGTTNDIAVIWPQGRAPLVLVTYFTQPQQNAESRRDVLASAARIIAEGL
Chain of OXA-48 (Q6XEC0 23-265 limits assumed): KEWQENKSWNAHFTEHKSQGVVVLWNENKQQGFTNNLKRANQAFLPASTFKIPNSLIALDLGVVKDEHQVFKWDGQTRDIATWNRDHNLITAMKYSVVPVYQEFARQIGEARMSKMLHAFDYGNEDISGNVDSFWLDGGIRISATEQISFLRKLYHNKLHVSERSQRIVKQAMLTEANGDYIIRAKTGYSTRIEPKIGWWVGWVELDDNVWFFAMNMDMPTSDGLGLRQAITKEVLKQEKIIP
Chain of IMP-1 (P52699 19-246 limits assumed): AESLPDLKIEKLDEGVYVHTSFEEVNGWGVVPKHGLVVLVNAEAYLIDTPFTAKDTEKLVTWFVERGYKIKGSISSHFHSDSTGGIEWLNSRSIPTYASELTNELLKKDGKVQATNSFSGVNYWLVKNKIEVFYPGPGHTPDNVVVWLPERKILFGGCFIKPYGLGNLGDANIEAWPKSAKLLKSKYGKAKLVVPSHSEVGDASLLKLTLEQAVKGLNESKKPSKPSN
Chain of TEM-1 (P62593 24-286 limits assumed): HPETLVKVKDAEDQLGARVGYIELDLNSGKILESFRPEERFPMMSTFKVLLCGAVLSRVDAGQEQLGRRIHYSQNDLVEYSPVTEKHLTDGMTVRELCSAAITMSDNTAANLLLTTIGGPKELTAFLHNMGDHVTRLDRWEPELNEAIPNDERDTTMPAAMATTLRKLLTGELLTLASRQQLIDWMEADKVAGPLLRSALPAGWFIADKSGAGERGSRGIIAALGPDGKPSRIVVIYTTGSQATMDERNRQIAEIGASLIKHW

| Structure (SMILES) | IC50 (NDM-1; [1]) [nM] | IC50 (NDM-5; [3]) [nM] | IC50 (IMP-1) [nM] | IC50 (VIM-1; [5]) [nM] | IC50 (VIM-2) [nM] | IC50 (KPC-2; [6]) [nM] | IC50 (TEM-1) [nM] | IC50 (CTX-M-14) [nM] | IC50 (OXA-48; [7]) [nM] | also measured |
| --- | --- | --- | --- | --- | --- | --- | --- | --- | --- | --- |
| N=C(N)Nc1cnn(Cc2ccc3c(c2C(=O)O)OB(O)CC3)c1 [Compound 38] | 10 to 1000 | 10 to 1000 | 1000 to 100000 | 1000 to 100000 | 10 to 1000 | 10 to 1000 | 10 to 1000 | 10 to 1000 | < 10 | IC50 (NDM-1; [2]): < 1000 nM; IC50 (NDM-5; [4]): < 1000 nM |
| CC(N)c1cnn(Cc2ccc3c(c2C(=O)O)OB(O)CC3)c1 (stereo not shown) [Compound 39] | 1000 to 100000 | 1000 to 100000 | 1000 to 100000 | 1000 to 100000 | 1000 to 100000 | < 10 | 10 to 1000 | 10 to 1000 | 10 to 1000 |  |
| NC1(c2cn(Cc3ccc4c(c3C(=O)O)OB(O)CC4)nn2)CC1 [Compound 41] |  |  |  |  | 10 to 1000 | < 10 | 10 to 1000 | 10 to 1000 | 10 to 1000 |  |
| NCCc1cnn(Cc2ccc3c(c2C(=O)O)OB(O)CC3)c1 [Compound 43] |  |  |  |  |  | < 10 |  |  |  |  |
| N[C@H]1CC(=O)N(Cc2ccc3c(c2C(=O)O)OB(O)CC3)C1 [Compound 45] | 1000 to 100000 | 1000 to 100000 | 1000 to 100000 | 1000 to 100000 | 1000 to 100000 | 10 to 1000 | 10 to 1000 | 10 to 1000 | 10 to 1000 |  |
| CC(C)(N)C#Cc1cnn(Cc2ccc3c(c2C(=O)O)OB(O)CC3)c1 [Compound 46] | 1000 to 100000 | 10 to 1000 | 1000 to 100000 | 1000 to 100000 | 10 to 1000 | < 10 | 10 to 1000 | < 10 | 10 to 1000 |  |
| O=C(O)c1c(Cn2cc(C3CNC3)nn2)ccc2c1OB(O)CC2 [Compound 47] | 10 to 1000 | 1000 to 100000 | 1000 to 100000 | 1000 to 100000 | 1000 to 100000 | 10 to 1000 | 10 to 1000 | 10 to 1000 | 10 to 1000 | IC50 (NDM-1; [2]): < 1000 nM; IC50 (NDM-5; [4]): < 1000 nM |
| N=C(N)N1CC(c2cn(Cc3ccc4c(c3C(=O)O)OB(O)CC4)nn2)C1 [Compound 49-Na] |  |  |  |  |  |  |  |  |  | IC50 (KPC-2; [8]): < 10 nM |
| O=C(O)c1c(Cn2cc3c(n2)CNC3)ccc2c1OB(O)C=C2 [Compound 52] | 1000 to 100000 | 1000 to 100000 | 1000 to 100000 | 1000 to 100000 | 1000 to 100000 | 1000 to 100000 | 1000 to 100000 | 1000 to 100000 | 1000 to 100000 |  |
| O=C(O)c1c(Cn2cc3c(n2)CNC3)ccc2c1OB(O)CC2 [Compound 56-Na] | 10 to 1000 |  | 1000 to 100000 | 10 to 1000 | 10 to 1000 | < 10 | 10 to 1000 | 10 to 1000 | < 10 | IC50 (KPC-2; [8]): < 10 nM; IC50 (OXA-48; [9]): < 10 nM |
| O=C(O)c1c(Cn2cc3c(n2)CNC3)ccc2c1OB(O)CC2 [Compound 56] | 10 to 1000 | 10 to 1000 | 1000 to 100000 | 10 to 1000 | 10 to 1000 | < 10 | < 10 | 10 to 1000 | < 10 | IC50 (NDM-1; [2]): < 1000 nM; IC50 (NDM-5; [4]): < 1000 nM; IC50 (VIM-1; VIM-1 and/or VIM-2, read-out: inhibitory activity at a nanomolar-level on VIM-1 and/or VIM-2): < 1000 nM |
| N=C(N)N1Cc2cn(Cc3ccc4c(c3C(=O)O)OB(O)CC4)nc2C1 [Compound 58] |  |  |  |  |  | < 10 | < 10 |  | < 10 |  |
| NCc1ccc(-c2cn(Cc3ccc4c(c3C(=O)O)OB(O)CC4)nn2)cc1 [Compound 63-Na] |  |  |  |  |  |  |  |  |  | IC50 (KPC-2; [8]): < 10 nM; IC50 (OXA-48; [9]): < 10 nM |
| N=C(N)NCc1ccc(-c2cn(Cc3ccc4c(c3C(=O)O)OB(O)CC4)nn2)cc1 [Compound 64] |  |  |  |  |  | < 10 |  |  | < 10 | inhibitory activity on KPC-2 compared to avibactam (KPC-2; comparison in words): better or comparable; inhibitory activity on TEM-1 compared to avibactam (TEM-1; comparison in words): better or comparable; inhibitory activity on CTX-M-14 compared to avibactam (CTX-M-14; comparison in words): better or comparable; inhibitory activity on OXA-48 compared to avibactam (OXA-48; comparison in words): better or comparable |
| O=C(O)c1c(Cn2ncc3c2CNC3)ccc2c1OB(O)CC2 [Compound 66] |  |  |  |  |  | < 10 | 10 to 1000 | 10 to 1000 | < 10 |  |
| C[C@]1(Cn2ccnn2)[C@H](C(=O)O)N2C(=O)C[C@H]2S1(=O)=O [Tazobactam, reference compound] | > 100000 | > 100000 | > 100000 |  | > 100000 | 1000 to 100000 |  |  |  | IC50 (VIM-1; Inhibitory activity on MBL VIM-1 (IC50 class)): > 100000 nM; IC50 (OXA-48; Inhibitory activity on SBL OXA-48 (IC50 class)): 1000 to 100000 nM |

Reference: patent US20250205259A1, “CLASS OF 7-((FIVE-MEMBERED HETEROCYCLIC)METHYL)-8-CARBOXYLIC ACID-BENZO CYCLIC BORATE DERIVATIVES AND USES THEREOF” (priority 2022, published 2025)
